Where two headings read alike, the source gives them in different places. Non-standard residues stand in square brackets, D forms with d. Residues, ends and D or L forms follow the SMILES beside them. *: point of attachment. Ala(4-thiazolyl) = N[C@@H](Cc1cscn1)C(=O)O; Phe(4-F) = N[C@@H](Cc1ccc(F)cc1)C(=O)O; 2Nal = N[C@@H](Cc1ccc2ccccc2c1)C(=O)O; NH(4-Me-benzyl) = Cc1ccc(CN*)cc1; NMeF = CN[C@@H](Cc1ccccc1)C(=O)O; Cit = NC(=O)NCCC[C@H](N)C(=O)O; Pip = O=C(O)[C@@H]1CCCCN1; Piperidide = C1CCN(*)CC1; NHcBu = C1CC(N*)C1; NHtBu = CC(C)(C)N*; ClAc = O=C(CCl)*; NHcPr = C1CC1N*
Legend:
Pin1 (GST-Pin1) = Pin1 (GST-Pin1) (Homo sapiens, UniProt Q13526); assay: Fluorescence polarization (FP) assay, binding to Pin1; details: competition with fluorescein-labeled peptide probe, 12 hours pre-incubation at 4° C., Kenakin Ki equation
Pin1 = Pin1 (Homo sapiens, UniProt Q13526); assay: Cellular target engagement, live cell biotin competition assay in TNBC MDA-MB-231 cells; format: cell-based; design: endogenous in cells; host or cells: MDA-MB-231; details: TNBC MDA-MB-231 cells; for Cellular Target Engagement?: 5 hours treatment, concentration under E7; for Cellular Target Engagement? concentration stated for complete engagement: read with the E6 line
Description: TNBC MDA-MB-231 cells were plated in 10 cm plates with 2.5 million cells per plate in 6 mL of media. The day after plating, cells were treated with the indicated concentrations of compound 18 for 5 hours. The cells were washed 2× with 0.9% NaCl (1 mL per 10 cm plate), and collected by scraping with a cell scraper. Cells were lysed in lysis buffer (50 mM Hepes pH 7.5, 150 mM NaCl, 1 mM EDTA, 10% v/v glycerol, 0.5% v/v […], protease inhibitors (Roche)) using 210 μL of cell lysis buffer per 10 cm plate of cells. After clarifying by centrifugation (14,000 rpm for 15 min at 4° C.), 5 μL of each lysate sample was combined with 5 μL of 2× LDS+10% β-mercaptoethanol, boiled for 5 minutes, and set aside for the input loading control (later to be loaded directly in the gel). Then, 200 μL of each lysate was then incubated with 1 μM of compound 2-32 (biotin probe compound) for 1 hour at 4° C. Lysates were then incubated with streptavidin agarose resin (30 μL of 1:1 beads: lysis buffer slurry) (Thermo Scientific™, cat. #20349) for 2 hours at 4° C. Beads were washed 4 times with 500 μL of washing buffer (50 mM Hepes, pH7.5, 10 mM NaCl, 1 mM EDTA, 10% glycerol), then pelleted by centrifugation and dried. The beads were then boiled at 95° C. for 5 minutes in 30 μL of 2× LDS+10% β-mercaptoethanol. Lysates were probed for specified proteins by western blotting using the Bolt system (Life Technologies™).

Sequence of Pin1 (GST-Pin1) (Q13526 whole entry): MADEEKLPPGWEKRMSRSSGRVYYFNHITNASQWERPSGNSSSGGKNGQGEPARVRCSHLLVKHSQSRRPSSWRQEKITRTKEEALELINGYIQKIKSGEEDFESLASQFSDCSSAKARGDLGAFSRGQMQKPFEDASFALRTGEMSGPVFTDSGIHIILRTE
Sequence of Pin1 (Q13526 whole entry): as above

Compound	Ki (Pin1 (GST-Pin1); read-out: Ki, μM (FP Assay)) [µM]	Cellular Target Engagement? (Pin1)	Cellular Target Engagement? concentration stated for complete engagement (Pin1)	Ki (Pin1 (GST-Pin1); Ki, μM (FP Assay)) [µM]
NC(=O)[C@H](Cc1ccc(O)cc1)NC(=O)[C@H](Cc1ccc2ccccc2c1)NC(=O)[C@@H]1CCCCN1C(=O)[C@H](CCC(=O)O)NC(=O)CCl [Compound 2-6, (S)-5-((S)-2-(((S)-1-(((S)-1-Amino-3-(4-hydroxyphenyl)-1-oxopropan-2-yl)amino)-3-(naphthalen-2-yl)-1-oxopropan-2-yl)carbamoyl)piperidin-1-yl)-4-(2-chloroacetamido)-5-oxopentanoic acid] (ClAc-E[Pip][2Nal]Y-NH2)	0.28	No		
Cc1ccc(CNC(=O)[C@H](CCCNC(N)=O)NC(=O)[C@H](Cc2c[nH]c3ccccc23)NC(=O)[C@@H]2CCCCN2C(=O)[C@H](Cc2ccccc2)N(C)C(=O)CCl)cc1 [Compound 11, (S)—N—((S)-3-(1H-indol-3-yl)-1-(((S)-1-((4-methylbenzyl)amino)-1-oxo-5-ureidopentan-2-yl)amino)-1-oxopropan-2-yl)-1-(N-(2-chloroacetyl)-N-methyl-L-phenylalanyl)piperidine-2-carboxamide] (ClAc-[NMeF][Pip]W[Cit]-{NH(4-Me-benzyl)})	0.01	Yes-	at 5 μM	
COC(=O)CC[C@H](NC(=O)CCl)C(=O)N1CCCC[C@H]1C(=O)N[C@@H](Cc1c[nH]c2ccccc12)C(=O)N[C@@H](Cc1ccc(F)cc1)C(=O)NCc1ccc(C)cc1 [Compound 11-3, Methyl (S)-4-(2-chloroacetamido)-5-((S)-2-(((S)-1-(((S)-3-(4-fluorophenyl)-1-((4-methylbenzyl)amino)-1-oxopropan-2-yl)amino)-3-(1H-indol-3-yl)-1-oxopropan-2-yl)carbamoyl)piperidin-1-yl)-5-oxopentanoate] (ClAc-E(OMe)[Pip]W[Phe(4-F)]-{NH(4-Me-benzyl)})		Yes-Complete	at 15 μM	0.19
COC(=O)CC[C@H](NC(=O)CCl)C(=O)N1CCCC[C@H]1C(=O)N[C@@H](Cc1c[nH]c2ccccc12)C(=O)N[C@@H](CCCNC(N)=O)C(=O)NCc1ccc(C)cc1 [Compound 11-4, Methyl (S)-5-((S)-2-(((S)-3-(1H-indol-3-yl)-1-(((S)-1-((4-methylbenzyl)amino)-1-oxo-5-ureidopentan-2-yl)amino)-1-oxopropan-2-yl)carbamoyl)piperidin-1-yl)-4-(2-chloroacetamido)-5-oxopentanoate] (ClAc-E(OMe)[Pip]W[Cit]-{NH(4-Me-benzyl)})		No		0.03
Cc1ccc(CNC(=O)[C@H](Cc2ccc(F)cc2)NC(=O)[C@H](Cc2c[nH]c3ccccc23)NC(=O)[C@@H]2CCCCN2C(=O)[C@H](CCC(=O)O)NC(=O)CCl)cc1 [Compound 11-5, (S)-4-(2-chloroacetamido)-5-((S)-2-(((S)-1-(((S)-3-(4-fluorophenyl)-1-((4-methylbenzyl)amino)-1-oxopropan-2-yl)amino)-3-(1H-indol-3-yl)-1-oxopropan-2-yl)carbamoyl)piperidin-1-yl)-5-oxopentanoic acid] (ClAc-E[Pip]W[Phe(4-F)]-{NH(4-Me-benzyl)})	0.13	No		
Cc1ccc(CNC(=O)[C@H](CCCNC(N)=O)NC(=O)[C@H](Cc2c[nH]c3ccccc23)NC(=O)[C@@H]2CCCCN2C(=O)[C@H](CCC(=O)O)NC(=O)CCl)cc1 [Compound 11-6, (S)-5-((S)-2-(((S)-3-(1H-indol-3-yl)-1-(((S)-1-((4-methylbenzyl)amino)-1-oxo-5-ureidopentan-2-yl)amino)-1-oxopropan-2-yl)carbamoyl)piperidin-1-yl)-4-(2-chloroacetamido)-5-oxopentanoic acid] (ClAc-E[Pip]W[Cit]-{NH(4-Me-benzyl)})	0.01	No		
COC(=O)CC[C@H](NC(=O)CCl)C(=O)N1CCCC[C@H]1C(=O)N[C@@H](Cc1c[nH]c2ccccc12)C(=O)N[C@@H](Cc1ccc(F)cc1)C(=O)NC(C)(C)C [Compound 11-18, Methyl (S)-5-((S)-2-(((S)-1-(((S)-1-(tert-butylamino)-3-(4-fluorophenyl)-1-oxopropan-2-yl)amino)-3-(1H-indol-3-yl)-1-oxopropan-2-yl)carbamoyl)piperidin-1-yl)-4-(2-chloroacetamido)-5-oxopentanoate] (ClAc-E(OMe)[Pip]W[Phe(4-F)]-NHtBu)		No		0.134
COC(=O)CC[C@H](NC(=O)CCl)C(=O)N1CCCC[C@H]1C(=O)N[C@@H](Cc1c[nH]c2ccccc12)C(=O)N[C@@H](Cc1ccc(F)cc1)C(=O)NC1CCC1 [Compound 11-19, Methyl (S)-4-(2-chloroacetamido)-5-((S)-2-(((S)-1-(((S)-1-(cyclobutylamino)-3-(4-fluorophenyl)-1-oxopropan-2-yl)amino)-3-(1H-indol-3-yl)-1-oxopropan-2-yl)carbamoyl)piperidin-1-yl)-5-oxopentanoate] (ClAc-E(OMe)[Pip]W[Phe(4-F)]-NHcBu)		No		0.146
COC(=O)CC[C@H](NC(=O)CCl)C(=O)N1CCCC[C@H]1C(=O)N[C@@H](Cc1c[nH]c2ccccc12)C(=O)N[C@@H](Cc1cscn1)C(=O)NCc1ccc(C)cc1 [Compound 11-28, Methyl (S)-5-((S)-2-(((S)-3-(1H-indol-3-yl)-1-(((S)-1-((4-methylbenzyl)amino)-1-oxo-3-(thiazol-4-yl)propan-2-yl)amino)-1-oxopropan-2-yl)carbamoyl)piperidin-1-yl)-4-(2-chloroacetamido)-5-oxopentanoate] (ClAc-E(OMe)[Pip]W[Ala(4-thiazolyl)]-{NH(4-Me-benzyl)})		No		0.099
NC(=O)NCCC[C@H](NC(=O)[C@H](Cc1c[nH]c2ccccc12)NC(=O)[C@@H]1CCCCN1C(=O)[C@H](Cc1ccccc1)NC(=O)CCl)C(=O)NC1CC1 [Compound 11-38, (S)-1-((2-chloroacetyl)-L-phenylalanyl)-N—((S)-1-(((S)-1-(cyclopropylamino)-1-oxo-5-ureidopentan-2-yl)amino)-3-(1H-indol-3-yl)-1-oxopropan-2-yl)piperidine-2-carboxamide] (ClAc-F[Pip]W[Cit]-NHcPr)	0.018	No		
NC(=O)NCCC[C@H](NC(=O)[C@H](Cc1c[nH]c2ccccc12)NC(=O)[C@@H]1CCCCN1C(=O)[C@H](Cc1ccccc1)NC(=O)CCl)C(=O)N1CCCCC1 [Compound 11-39, (S)—N—((S)-3-(1H-indol-3-yl)-1-oxo-1-(((S)-1-oxo-1-(piperidin-1-yl)-5-ureidopentan-2-yl)amino)propan-2-yl)-1-((2-chloroacetyl)-L-phenylalanyl)piperidine-2-carboxamide] (ClAc-F[Pip]W[Cit]-Piperidide)	0.017	No		
CCOC(=O)[C@H](CCCNC(N)=O)NC(=O)[C@H](Cc1c[nH]c2ccccc12)NC(=O)[C@@H]1CCCCN1C(=O)[C@H](Cc1ccccc1)N(C)C(C)=O [Compound 18-1, Ethyl (S)-2-((S)-2-((S)-1-(N-acetyl-N-methyl-L-phenylalanyl)piperidine-2-carboxamido)-3-(1H-indol-3-yl)propanamido)-5-ureidopentanoate] (Ac-[NMeF][Pip]W[Cit]-OEt)	1.9	No		

Reference: US20210238225A1, “PEPTIDOMIMETIC INHIBITORS OF THE PEPTIDYL-PROLYL CIS/TRANS ISOMERASE (PIN1)” (DANA-FARBER CANCER INSTITUTE, INC., priority 2018, published 2021)
